This passage reports IC50 and CC50 results from patent US11459296B2, “Antibacterial compounds” (INFEX Therapeutics Limited, priority 2018, dated 2022).

The target of one data set is NDM-1 (Klebsiella pneumoniae, UniProt C7C422). The data set is described as follows: metallo-β-lactamase inhibition assay (nitrocefin). It counts as biochemical. Particulars: 1.5 nM NDM-1, 100 μM nitrocefin, 37° C., pH 7.5. The method, then:
Compounds of the invention were tested in a metallo-β-lactamase inhibition assay to investigate mechanism of action of the compounds. Results are reported as the concentration of test article required to inhibit enzyme activity by 50% (IC50).
Inhibition of metallo-β-lactamase enzyme function was performed at 37° C. in buffer at pH 7.5 (50 mM HEPES, 150 mM NaCl, 0.1 mM ZnSO4, 20 μg/mL PEG4000), containing 1.5 nM NDM-1, 100 μM nitrocefin, and a range of concentrations of compound. Absorbance at 490 nm was measured using a BMG LABTECH FLUOstar Omega microplate reader every minute for 30 minutes. IC50S were determined from the average increase in OD per minute versus the Log 10 concentration of compound using GraphPad Prism.

A short description of data set [1]: Cytotoxicity Assay (CellTiter-Glo). It counts as cell-based. Particulars: human, Hep G2 cells (ATCC HB-8065); 24 h exposure, cell viability; read-out: HepG2 CC50. Here is the method:
Cytotoxicity was evaluated in human Hep G2 cells (ATCC HB-8065) seeded at a density of 2×10^5 cells per well and incubated for 24 h at 37° C., 5% CO2. Cells were exposed to a doubling dilution series of test article. After 24 h exposure, the viability of the cells was determined using CellTiter-Glo® (Promega, Wis., USA) according to the manufacturer's instructions. Results are reported as the concentration of test article required to reduce cell viability by 50% (CC50).

By IC50 is commonly meant the point on the concentration scale where inhibition reaches its midpoint. Higher therefore signals a need for much substance. A word on the CC50: it is the concentration at which the toxic effect on the cells reaches its halfway point.

≈ marks a conversion by molar mass, not a printed value. Counter-ions that a name gives are not always drawn. Some results are limits rather than exact numbers.

Sequence of NDM-1 (C7C422 whole entry, looked up, species assumed): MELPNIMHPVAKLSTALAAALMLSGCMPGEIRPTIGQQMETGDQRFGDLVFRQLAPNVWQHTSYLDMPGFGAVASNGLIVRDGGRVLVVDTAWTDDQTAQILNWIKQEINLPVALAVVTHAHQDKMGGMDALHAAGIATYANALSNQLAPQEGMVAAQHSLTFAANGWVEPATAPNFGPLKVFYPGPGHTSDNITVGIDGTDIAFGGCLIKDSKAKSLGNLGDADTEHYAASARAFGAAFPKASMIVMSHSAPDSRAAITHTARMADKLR

In the case of `CC(=O)Nc1ccc(-c2ccn(S(N)(=O)=O)c2C(=O)O)cn1` [Example 24, 3-(6-Acetamido-3-pyridyl)-1-sulfamoyl-pyrrole-2-carboxylic acid], the IC50 on NDM-1 was 608 nM. As to `NS(=O)(=O)n1ccc(-c2ccc(S(=O)(=O)N3CCNCC3)cc2)c1C(=O)O` [Example 35, 3-[4-(Piperazine-1-sulfonyl)phenyl]-1-sulfamoyl-1H-pyrrole-2-carboxylic acid], the CC50 at 24 h in data set [1] was above 256 µg/mL.

`NCCNS(=O)(=O)c1ccc(-c2ccn(S(N)(=O)=O)c2C(=O)O)cc1` [Example 36, 3-{4-[(2-Aminoethyl)sulfamoyl]phenyl}-1-sulfamoyl-1H-pyrrole-2-carboxylic acid] yielded an IC50 on NDM-1 of 1010 nM. Moreover, the CC50 at 24 h in data set [1] was above 256 µg/mL. Consider `NS(=O)(=O)c1ccn(-c2ccc(C3CCNCC3)cc2)c1C(=O)O` [Example 82, 1-[4-(Piperidin-4-yl)phenyl]-3-sulfamoyl-1H-pyrrole-2-carboxylic acid, sodium salt], for which the CC50 at 24 h in data set [1] is above 256 µg/mL.

In the case of `NS(=O)(=O)n1ccc(-c2ccncc2)c1C(=O)O` [Example 9, 3-(Pyridin-4-yl)-1-sulfamoyl-1H-pyrrole-2-carboxylic acid, sodium salt], the IC50 on NDM-1 turned out to be 1350 nM. For the same compound, in data set [1], the CC50 at 24 h is above 256 µg/mL. Regarding `NS(=O)(=O)n1ccc(C2CCCCC2)c1C(=O)O` [Example 10, 3-Cyclohexyl-1-sulfamoyl-pyrrole-2-carboxylic acid, sodium salt], in data set [1], the CC50 at 24 h amounted to 145 µg/mL.

Take `NCCCNC(=O)c1ccc(-c2ccn(S(N)(=O)=O)c2C(=O)O)cc1` [Example 51, 3-[4-(3-Aminopropylcarbamoyl)phenyl]-1-sulfamoyl-pyrrole-2-carboxylic acid hydrochloride]: 263 nM corresponded to half-maximal inhibition against NDM-1 (IC50).

For the compound `NS(=O)(=O)n1ccc(C2CCNCC2)c1C(=O)O` [Example 57, 3-(Piperidin-4-yl)-1-sulfamoyl-1H-pyrrole-2-carboxylic acid hydrochloride], the CC50 at 24 h in data set [1] is above 256 µg/mL.

As for `N#Cc1ccc(-c2ccn(S(N)(=O)=O)c2C(=O)O)cc1` [Example 15, 3-(4-Cyanophenyl)-1-sulfamoyl-1H-pyrrole-2-carboxylic acid], the CC50 at 24 h in data set [1] is above 256 µg/mL. `Cn1cc(-c2ccn(S(N)(=O)=O)c2C(=O)O)cn1` [Example 6, 3-(1-Methyl-1H-pyrazol-4-yl)-1-sulfamoyl-1H-pyrrole-2-carboxylic acid, sodium salt] had an IC50 on NDM-1 of 2860 nM. Also, the CC50 at 24 h in data set [1] is above 256 µg/mL.

For `NS(=O)(=O)n1ccc(OCC2CC2)c1C(=O)O` [Example 72, 3-(Cyclopropylmethoxy)-1-sulfamoyl-pyrrole-2-carboxylic acid, Sodium Salt], 3890 nM corresponded to half-maximal inhibition against NDM-1 (IC50). Moreover, the CC50 at 24 h in data set [1] was above 256 µg/mL. For `NS(=O)(=O)n1ccc(-c2cccc3ncccc23)c1C(=O)O` [Example 11, 3-(5-Quinolyl)-1-sulfamoyl-pyrrole-2-carboxylic acid, sodium salt], in that order: 4120 nM and above 256 µg/mL. `NS(=O)(=O)n1ccc(-c2ccc(N3CCOCC3)nc2)c1C(=O)O` [Example 16, 3-[6-(Morpholin-4-yl)pyridin-3-yl]-1-sulfamoyl-1H-pyrrole-2-carboxylic acid]: in data set [1], the CC50 at 24 h is above 64 µg/mL. The same measure, in the same setting: the figure for `CN(C)S(=O)(=O)c1ccc(-c2ccn(S(N)(=O)=O)c2C(=O)O)cc1` [Example 4, 3-[4-(Dimethylsulfamoyl)phenyl]-1-sulfamoyl-1H-pyrrole-2-carboxylic acid, sodium salt] is above 128 µg/mL. Turning to `NS(=O)(=O)n1ccc(Cc2ccccc2)c1C(=O)O` [Example 54, 3-Benzyl-1-sulfamoyl-1H-pyrrole-2-carboxylic acid], the CC50 at 24 h in data set [1] was 248 µg/mL (≈ 884 µM). On the same count and under the same terms, to `CC(=O)N1CCC(c2ccc(-c3ccn(S(N)(=O)=O)c3C(=O)O)cc2)CC1` [Example 48, 3-[4-(1-Acetylpiperidin-4-yl)phenyl]-1-sulfamoyl-1H-pyrrole-2-carboxylic acid] belongs 158 µg/mL (≈ 405 µM).

`Nc1nc2ccc(-c3ccn(S(N)(=O)=O)c3C(=O)O)cn2n1` [Example 47, 3-(2-Amino-[1,2,4]triazolo[1,5-a]pyridin-6-yl)-1-sulfamoyl-pyrrole-2-carboxylic acid hydrochloride] returned an IC50 at NDM-1 of 656 nM. Take `COc1ccc(-n2ccc(S(N)(=O)=O)c2C(=O)O)cc1` [Example 83, 1-(4-Methoxyphenyl)-3-sulfamoyl-pyrrole-2-carboxylic acid]: the CC50 at 24 h in data set [1] was above 256 µg/mL. `Nc1nc2c(-c3ccn(S(N)(=O)=O)c3C(=O)O)cccc2s1` [Example 53, 3-(2-Amino-1,3-benzothiazol-4-yl)-1-sulfamoyl-pyrrole-2-carboxylic acid hydrochloride] registered an IC50 at NDM-1 of 314 nM. Turning to `NS(=O)(=O)n1ccc(-c2ccc(-c3ccncc3)cc2)c1C(=O)O` [Example 13, 3-[4-(Pyridin-4-yl)phenyl]-1-sulfamoyl-1H-pyrrole-2-carboxylic acid], in data set [1], the CC50 at 24 h was above 256 µg/mL. Still for that read-out and setting: to `NS(=O)(=O)n1ccc(C2CC2)c1C(=O)O` [Example 55, 3-Cyclopropyl-1-sulfamoyl-1H-pyrrole-2-carboxylic acid] belongs above 256 µg/mL. With `Nc1ncc(-c2ccn(S(N)(=O)=O)c2C(=O)O)cn1` [Example 25, 3-(2-Aminopyrimidin-5-yl)-1-sulfamoyl-pyrrole-2-carboxylic acid, sodium salt], half-maximal inhibition on NDM-1 (IC50) required 1360 nM. `NS(=O)(=O)n1ccc(-c2ccccc2F)c1C(=O)O` [Example 14, 3-(2-Fluorophenyl)-1-sulfamoyl-pyrrole-2-carboxylic acid]: the CC50 at 24 h in data set [1] was above 256 µg/mL. Take `CN(C)S(=O)(=O)N1CCC(c2ccc(-c3ccn(S(N)(=O)=O)c3C(=O)O)cc2)CC1` [Example 49, 3-[4-[1-(Dimethylsulfamoyl)piperidin-4-yl]phenyl]-1-sulfamoyl-1H-pyrrole-2-carboxylic acid]: the CC50 at 24 h in data set [1] is 66.4 µg/mL (≈ 145 µM). Turning to `NS(=O)(=O)n1ccc(-c2ccc(OC3CCNCC3)cc2)c1C(=O)O` [Example 37, 3-[4-(Piperidin-4-yloxy)phenyl]-1-sulfamoyl-1H-pyrrole-2-carboxylic acid hydrochloride], the CC50 at 24 h in data set [1] is above 256 µg/mL.

With `NS(=O)(=O)c1ccn(Cc2ccccc2)c1C(=O)O` [Example 84, 1-Benzyl-3-sulfamoyl-pyrrole-2-carboxylic acid], in data set [1], the CC50 at 24 h is above 256 µg/mL. For `NC(=O)c1ccc(-c2ccn(S(N)(=O)=O)c2C(=O)O)cc1` [Example 26, 3-(4-Carbamoylphenyl)-1-sulfamoyl-pyrrole-2-carboxylic acid], the IC50 against NDM-1 was 512 nM. With `Cc1ccccc1-c1ccn(S(N)(=O)=O)c1C(=O)O` [Example 20, 3-(o-Tolyl)-1-sulfamoyl-pyrrole-2-carboxylic acid], the CC50 at 24 h in data set [1] was above 256 µg/mL. For the compound `NS(=O)(=O)n1ccc(-c2cccc(C3CCNCC3)c2)c1C(=O)O` [Example 40, 3-[3-(4-Piperidyl)phenyl]-1-sulfamoyl-pyrrole-2-carboxylic acid hydrochloride], the half-inhibitory concentration (IC50) on NDM-1 came out at 264 nM. This counts as sub-micromolar. As for `NS(=O)(=O)n1ccc(-c2ccccc2)c1C(=O)O` [Example 3, 3-Phenyl-1-sulfamoyl-1H-pyrrole-2-carboxylic acid, sodium salt], the CC50 at 24 h in data set [1] was above 128 µg/mL. Turning to `CS(=O)(=O)N1CCC(c2ccn(S(N)(=O)=O)c2C(=O)O)CC1` [Example 59, 3-(1-Methylsulfonyl-4-piperidyl)-1-sulfamoyl-pyrrole-2-carboxylic acid], in data set [1], the CC50 at 24 h is above 256 µg/mL. Consider `Cc1ccc(-n2ccc(S(N)(=O)=O)c2C(=O)O)cc1` [Example 81, 1-(p-Tolyl)-3-sulfamoyl-pyrrole-2-carboxylic acid], for which, in data set [1], the 50% cytotoxic concentration (CC50) at 24 h was above 256 µg/mL. As for `NCCC(=O)N1CCC(c2ccn(S(N)(=O)=O)c2C(=O)O)CC1` [Example 63, 3-[1-(3-Aminopropanoyl)-4-piperidyl]-1-sulfamoyl-pyrrole-2-carboxylic acid], half-maximal inhibition against NDM-1 (IC50) was put at 834 nM. Take `Cc1cn(S(N)(=O)=O)c(C(=O)O)c1-c1ccccc1` [Example 75, 4-Methyl-3-phenyl-1-sulfamoyl-1H-pyrrole-2-carboxylic acid]: the CC50 at 24 h in data set [1] was above 256 µg/mL. Consider `NS(=O)(=O)c1ccn(-c2ccc(F)cc2)c1C(=O)O` [Example 80, 1-(4-Fluorophenyl)-3-sulfamoyl-pyrrole-2-carboxylic acid], for which, in data set [1], the CC50 at 24 h was above 256 µg/mL. Still for that read-out and setting: to `NS(=O)(=O)n1ccc(C2=CCNCC2)c1C(=O)O` [Example 38, 1-Sulfamoyl-3-(1,2,3,6-tetrahydropyridin-4-yl)-1H-pyrrole-2-carboxylic acid hydrochloride] belongs above 256 µg/mL; to `Cc1nn(C)c(C)c1-c1ccn(S(N)(=O)=O)c1C(=O)O` [Example 7, 1-Sulfamoyl-3-(1,3,5-trimethyl-1H-pyrazol-4-yl)-1H-pyrrole-2-carboxylic acid, sodium salt], above 256 µg/mL. For `CCc1cn(S(N)(=O)=O)c(C(=O)O)c1-c1ccccc1` [Example 74, 4-Ethyl-3-phenyl-1-sulfamoyl-pyrrole-2-carboxylic acid], in data set [1], the CC50 at 24 h was determined as 237 µg/mL (≈ 805 µM).

With `CC(C)(C)OC(=O)N1CCN(S(=O)(=O)c2ccc(-c3ccn(S(N)(=O)=O)c3C(=O)O)cc2)CC1` [Example 17, 3-[4-(4-tert-Butoxycarbonylpiperazin-1-yl)sulfonylphenyl]-1-sulfamoyl-pyrrole-2-carboxylic acid, sodium salt], in data set [1], the CC50 at 24 h came out at 252 µg/mL.
